Experiments:
CYP3A4 = CYP3A4 (Homo sapiens, UniProt P08684); assay: in vitro; conditions: microsomes
CYP2C19 = CYP2C19 (Homo sapiens, UniProt P33261); assay: CYP inhibition in human liver microsomes; conditions: human, human liver microsomes, probe mephenytoin
CYP2C8 [1] = molecular target: T1, CYP2C8 (Homo sapiens, UniProt P10632); assay: CYP inhibition in human liver microsomes; conditions: human, human liver microsomes, probe paclitaxel
T1 sequence (P10632 1-490): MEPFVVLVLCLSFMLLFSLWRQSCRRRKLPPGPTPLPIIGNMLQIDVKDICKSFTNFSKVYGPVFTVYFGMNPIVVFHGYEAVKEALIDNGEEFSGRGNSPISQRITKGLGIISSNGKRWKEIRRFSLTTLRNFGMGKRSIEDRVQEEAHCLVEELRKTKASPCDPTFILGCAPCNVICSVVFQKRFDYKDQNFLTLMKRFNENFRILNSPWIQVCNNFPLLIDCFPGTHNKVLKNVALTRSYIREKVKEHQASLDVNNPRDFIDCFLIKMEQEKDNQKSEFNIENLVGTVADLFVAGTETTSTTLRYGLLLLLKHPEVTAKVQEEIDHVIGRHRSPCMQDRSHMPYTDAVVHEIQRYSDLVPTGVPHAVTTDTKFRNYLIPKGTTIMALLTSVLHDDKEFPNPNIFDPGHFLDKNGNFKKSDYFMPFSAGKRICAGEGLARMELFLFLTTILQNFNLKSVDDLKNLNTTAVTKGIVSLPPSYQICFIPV

CYP2C9 = CYP2C9 (Homo sapiens, UniProt P11712); assay: CYP inhibition in human liver microsomes; conditions: human, human liver microsomes, probe diclofenac
Sequence of CYP2C9 (P11712 whole entry): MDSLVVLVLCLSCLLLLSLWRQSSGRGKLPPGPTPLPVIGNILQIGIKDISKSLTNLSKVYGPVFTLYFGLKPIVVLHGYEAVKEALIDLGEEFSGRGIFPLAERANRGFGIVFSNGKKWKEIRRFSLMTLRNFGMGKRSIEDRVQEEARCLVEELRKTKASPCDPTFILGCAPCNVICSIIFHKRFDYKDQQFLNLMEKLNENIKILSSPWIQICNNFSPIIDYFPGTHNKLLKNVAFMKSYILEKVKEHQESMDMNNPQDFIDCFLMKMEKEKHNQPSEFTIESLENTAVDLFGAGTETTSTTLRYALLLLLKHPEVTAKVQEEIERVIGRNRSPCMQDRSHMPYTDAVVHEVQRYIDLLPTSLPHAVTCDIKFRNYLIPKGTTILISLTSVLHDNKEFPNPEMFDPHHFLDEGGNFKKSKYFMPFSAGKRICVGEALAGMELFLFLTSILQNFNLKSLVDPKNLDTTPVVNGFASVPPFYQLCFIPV

CYP2B6 = molecular target: T2, CYP2B6 (Homo sapiens, UniProt P20813); assay: CYP inhibition in human liver microsomes; conditions: human, human liver microsomes, probe bupropion
T2 sequence (P20813 1-491): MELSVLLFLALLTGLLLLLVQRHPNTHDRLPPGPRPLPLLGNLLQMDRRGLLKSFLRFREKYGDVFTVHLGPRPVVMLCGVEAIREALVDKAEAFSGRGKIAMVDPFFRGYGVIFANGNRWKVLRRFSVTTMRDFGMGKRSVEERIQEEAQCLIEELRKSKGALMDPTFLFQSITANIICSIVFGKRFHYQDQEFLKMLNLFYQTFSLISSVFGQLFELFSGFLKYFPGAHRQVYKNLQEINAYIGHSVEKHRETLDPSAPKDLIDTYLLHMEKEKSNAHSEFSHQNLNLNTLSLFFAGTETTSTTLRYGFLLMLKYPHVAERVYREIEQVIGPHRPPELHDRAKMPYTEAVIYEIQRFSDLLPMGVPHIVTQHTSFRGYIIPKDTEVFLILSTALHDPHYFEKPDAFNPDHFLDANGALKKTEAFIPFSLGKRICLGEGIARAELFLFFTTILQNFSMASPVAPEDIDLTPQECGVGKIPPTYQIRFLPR

CYP1A2 [2] = molecular target: T3, CYP1A2 (Homo sapiens, UniProt P05177); assay: in vitro; conditions: microsomes
T3 sequence (P05177 1-516): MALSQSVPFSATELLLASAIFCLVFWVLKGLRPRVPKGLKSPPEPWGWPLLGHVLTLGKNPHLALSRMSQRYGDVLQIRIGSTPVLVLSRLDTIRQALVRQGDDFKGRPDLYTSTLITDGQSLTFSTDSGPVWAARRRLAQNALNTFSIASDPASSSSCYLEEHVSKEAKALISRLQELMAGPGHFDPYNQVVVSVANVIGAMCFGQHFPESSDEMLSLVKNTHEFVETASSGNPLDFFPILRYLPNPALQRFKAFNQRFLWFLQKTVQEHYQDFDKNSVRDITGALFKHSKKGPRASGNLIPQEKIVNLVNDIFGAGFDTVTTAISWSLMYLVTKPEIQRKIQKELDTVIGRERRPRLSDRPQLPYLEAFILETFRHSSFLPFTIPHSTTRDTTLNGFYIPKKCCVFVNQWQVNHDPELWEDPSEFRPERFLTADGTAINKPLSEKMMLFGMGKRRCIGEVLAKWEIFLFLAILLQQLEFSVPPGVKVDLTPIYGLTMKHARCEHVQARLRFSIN

CYP2D6 = CYP2D6 (Homo sapiens, UniProt P10635); assay: CYP inhibition in human liver microsomes; conditions: human, human liver microsomes, probe bufuralol
Sequence of CYP2D6 (P10635 whole entry): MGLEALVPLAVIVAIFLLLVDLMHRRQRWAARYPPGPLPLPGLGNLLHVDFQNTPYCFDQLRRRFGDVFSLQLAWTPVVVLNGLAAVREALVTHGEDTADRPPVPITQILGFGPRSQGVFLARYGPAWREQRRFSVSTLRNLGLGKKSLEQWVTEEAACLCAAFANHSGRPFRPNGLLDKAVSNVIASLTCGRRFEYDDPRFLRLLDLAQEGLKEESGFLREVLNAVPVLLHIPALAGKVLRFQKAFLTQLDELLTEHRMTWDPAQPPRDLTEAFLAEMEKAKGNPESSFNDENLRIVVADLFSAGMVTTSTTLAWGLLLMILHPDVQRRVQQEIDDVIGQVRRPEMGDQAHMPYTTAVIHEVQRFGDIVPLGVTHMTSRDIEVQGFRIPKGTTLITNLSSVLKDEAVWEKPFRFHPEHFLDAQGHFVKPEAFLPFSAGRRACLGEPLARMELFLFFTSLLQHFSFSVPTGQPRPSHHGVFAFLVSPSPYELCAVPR

cardiovascular effects = conditions: dogs ref 4, 9; cited from earlier work
CYP1A2 [3] = molecular target: T3, CYP1A2; assay: CYP inhibition in human liver microsomes; conditions: human, human liver microsomes, probe phenacetin
CYP2C8 [4] = molecular target: T1, CYP2C8; assay: in vitro; conditions: microsomes
MATE2-K = molecular target: T4, MATE2-K (Homo sapiens, UniProt Q86VL8); assay: Transporter mediated assay (substrate/inhibitor), MDCK-II cells; format: in vitro ADME; conditions: human, polarized monolayer of MDCK-II cells expressing MATE2-K, No BSA, 100 μM
T4 construct: expressed in transfected cells; host or cells: MDCK-II cells
T4 sequence (Q86VL8 1-566 isoform Q86VL8-3): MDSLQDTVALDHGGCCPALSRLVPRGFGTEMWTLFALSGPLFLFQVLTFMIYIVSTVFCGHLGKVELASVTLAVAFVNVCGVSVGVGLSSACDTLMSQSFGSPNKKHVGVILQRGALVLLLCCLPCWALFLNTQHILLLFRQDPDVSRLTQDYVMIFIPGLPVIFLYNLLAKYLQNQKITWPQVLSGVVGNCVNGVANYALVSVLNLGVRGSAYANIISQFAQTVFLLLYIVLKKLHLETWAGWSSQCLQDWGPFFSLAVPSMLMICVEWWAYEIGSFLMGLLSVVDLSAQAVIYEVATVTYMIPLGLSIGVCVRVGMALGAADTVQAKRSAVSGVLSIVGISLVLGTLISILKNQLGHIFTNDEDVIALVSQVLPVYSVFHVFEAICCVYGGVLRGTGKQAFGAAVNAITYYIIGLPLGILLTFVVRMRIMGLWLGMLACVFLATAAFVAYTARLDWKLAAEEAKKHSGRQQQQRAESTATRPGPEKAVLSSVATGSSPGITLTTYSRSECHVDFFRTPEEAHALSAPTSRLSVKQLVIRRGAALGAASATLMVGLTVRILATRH
Protocol: The MDCK-II cells were treated to express the transporter of interest. […] For the uptake assay, the net transporter-mediated uptake-rate (V) of the substrate by each SLC transporter was calculated as follows: Transporter–mediatedupdaterate(pmol/min/cm^2)=(Cellularaccumulationincellsexpressingthetransporter)−(Meancellularaccumulationincontrolcells)/Surfacearea×incubationtime
(§1) Fold of activity and percent inhibition were determined as follows: Foldofactivity=(Meanuptakerate)transporterexpressingcells/(Meanuptakerate)controlcells Percentinhibition=100−100×(Transport‐mediatedupdaterate)withinhibitor/(Transport‐mediatedupdaterate)vehiclecontrol

MATE1 = molecular target: T5, MATE1 (Homo sapiens, UniProt Q96FL8); assay: as above; format: in vitro ADME; conditions: human, polarized monolayer of MDCK-II cells expressing MATE1; MATE1, No BSA, 100 μM
T5 construct: expressed in transfected cells; host or cells: MDCK-II cells
T5 sequence (Q96FL8 1-570): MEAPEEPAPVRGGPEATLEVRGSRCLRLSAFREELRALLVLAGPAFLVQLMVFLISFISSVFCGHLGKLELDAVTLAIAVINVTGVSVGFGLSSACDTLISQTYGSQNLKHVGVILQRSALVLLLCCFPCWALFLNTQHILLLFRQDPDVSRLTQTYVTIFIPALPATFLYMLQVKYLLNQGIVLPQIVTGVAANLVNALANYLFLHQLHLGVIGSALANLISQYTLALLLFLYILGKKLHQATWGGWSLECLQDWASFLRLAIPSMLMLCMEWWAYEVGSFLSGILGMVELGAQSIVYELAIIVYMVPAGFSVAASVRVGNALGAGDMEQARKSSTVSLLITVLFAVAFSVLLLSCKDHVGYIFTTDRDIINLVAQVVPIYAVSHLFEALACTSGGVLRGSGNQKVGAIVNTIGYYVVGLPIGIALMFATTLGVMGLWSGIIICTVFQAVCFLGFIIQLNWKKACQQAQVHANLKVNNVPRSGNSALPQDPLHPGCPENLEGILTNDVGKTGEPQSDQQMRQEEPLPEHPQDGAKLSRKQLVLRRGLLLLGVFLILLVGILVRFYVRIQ
Protocol: The MDCK-II cells were treated to express the transporter of interest. The transport of each probe substrate was determined by radiometric detection (Fig 1 in S1 File). […] For the uptake assay, the net transporter-mediated uptake-rate (V) of the substrate by each SLC transporter was calculated as follows: Transporter–mediatedupdaterate(pmol/min/cm^2)=(Cellularaccumulationincellsexpressingthetransporter)−(Meancellularaccumulationincontrolcells)/Surfacearea×incubationtime
as §1

[5] = CYP activity (% of Control) 3A4 (Midazolam)
[6] = CYP activity (% of Control) 3A4 (Testosterone)

Sequence of CYP3A4 (P08684 2-503): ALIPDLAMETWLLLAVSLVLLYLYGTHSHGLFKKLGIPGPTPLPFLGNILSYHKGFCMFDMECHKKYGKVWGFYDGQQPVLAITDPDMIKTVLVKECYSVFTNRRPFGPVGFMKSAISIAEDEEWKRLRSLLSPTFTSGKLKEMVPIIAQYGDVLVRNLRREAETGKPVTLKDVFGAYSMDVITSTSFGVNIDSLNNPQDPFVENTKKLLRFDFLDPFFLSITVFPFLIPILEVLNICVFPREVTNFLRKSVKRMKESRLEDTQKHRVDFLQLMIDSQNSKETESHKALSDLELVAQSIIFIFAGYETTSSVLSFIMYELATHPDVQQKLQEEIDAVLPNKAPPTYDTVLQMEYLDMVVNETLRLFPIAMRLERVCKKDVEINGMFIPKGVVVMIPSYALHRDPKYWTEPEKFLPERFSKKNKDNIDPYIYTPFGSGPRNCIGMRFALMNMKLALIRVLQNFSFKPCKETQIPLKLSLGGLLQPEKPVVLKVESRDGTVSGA
Sequence of CYP2C19 (P33261 whole entry): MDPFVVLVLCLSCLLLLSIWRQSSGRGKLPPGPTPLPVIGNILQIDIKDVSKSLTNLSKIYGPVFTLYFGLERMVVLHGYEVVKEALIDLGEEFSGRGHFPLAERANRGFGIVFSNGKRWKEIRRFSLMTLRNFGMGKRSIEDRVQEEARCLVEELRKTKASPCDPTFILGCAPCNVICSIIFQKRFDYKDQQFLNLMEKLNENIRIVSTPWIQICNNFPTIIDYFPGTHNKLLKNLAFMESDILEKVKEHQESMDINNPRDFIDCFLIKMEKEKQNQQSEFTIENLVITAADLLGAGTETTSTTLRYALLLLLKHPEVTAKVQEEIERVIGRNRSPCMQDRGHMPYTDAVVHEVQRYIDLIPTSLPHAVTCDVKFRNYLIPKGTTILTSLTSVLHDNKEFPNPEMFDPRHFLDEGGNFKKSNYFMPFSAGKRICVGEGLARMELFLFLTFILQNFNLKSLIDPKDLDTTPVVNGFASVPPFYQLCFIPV

Row | SMILES | activity at 20 min, 10 µM (CYP3A4; [5]) [%] | activity at 20 min, 10 µM (CYP3A4; [6]) [%] | activity at 20 min, 10 µM (CYP2C19) [%] | activity at 20 min, 10 µM (CYP2C8 [1]) [%] | activity at 20 min, 10 µM (CYP2C9) [%] | activity at 20 min, 10 µM (CYP2B6) [%] | activity at 20 min, 10 µM (CYP1A2 [2]) [%] | activity at 20 min, 10 µM (CYP2D6) [%] | cardiovascular effect in combination with cocaine (cardiovascular effects) | activity at 20 min, 10 µM (CYP1A2 [3]) [%] | activity at 20 min, 10 µM (CYP2C8 [4]) [%] | inhibition at 100 µM (MATE2-K) [%] | inhibition at 100 µM (MATE1) [%]
1 | Cc1nc2c([nH]1)c(=O)n(C)c(=O)n2Cc1ccco1 [Furafylline] | 97.2 ± 4.7 | 95.1 ± 5.6 | 94.3 ± 8.1 | 89.9 ± 1.4 | 96.3 ± 1.4 | 97.3 ± 2.9 | 49 ± 5.3 | 94.7 ± 1.1 |  |  |  |  | 
2 | Cc1ncoc1-c1nnc(SCCCN2C[C@@H]3C[C@]3(c3ccc(C(F)(F)F)cc3F)C2)n1C [GSK598,809] |  |  |  |  |  |  |  |  | hypertension |  |  |  | 
3 | CC(C)(O)c1ccccc1CC[C@@H](SCC1(CC(=O)O)CC1)c1cccc(/C=C/c2ccc3ccc(Cl)cc3n2)c1 [Montelukast] | 93.8 ± 3.9 | 93.1 ± 2 | 105 ± 2 |  | 75.4 ± 0.9 | 90.5 ± 1.3 |  | 88.4 ± 1.8 |  | 91 ± 1.8 | 10.3 ± 0.7 |  | 
4 | CN/C(=N/CCSCc1nc[nH]c1C)NC#N [cimetidine, reference compound] |  |  |  |  |  |  |  |  |  |  |  | 95.9 ± 0.59 | 99.3 ± 0.22

— PMC11649115, “In vitro safety evaluation of dopamine D3R antagonist, R-VK4-116, as a potential medication for the treatment of opioid use disorder” (PLOS ONE, 2024)
